Measured values from patent US12685312B2, “Sulfonamide apyrase inhibitors” (Texas Crop Science, Inc., priority 2022, dated 2026).

system: apyrase; assay: Screen for apyrase inhibitors (Method 1, in vitro phosphate-release absorbance assay); assay type: biochemical; settings: inhibitor conc at 1 mM stock, 1 hr room temperature, absorbance 630 nm; rounded average of two assay results
Procedure: Apyrase inhibitors useful as enhancers of pesticidal activity are assessed using an in vitro assay. The method of Windsor, Bio Techniques 33:1024-1030 (November 2002) was used as follows Screen for Apyrase Inhibitors- 96 well plates were used for the assay: (Greiner bio-one: REF-655901-96 well, PS, F-bottom, Clear, Non-binding) Buffers: • Reaction Buffer: 60 mM Hepes; 3 mM MgCl2, 3 mM CaCl2 and 3 mM ATP (pH 6.5) • Development Buffer A: 2% aqueous ammonium molybdate • Development Buffer B: 11% ascorbic acid in 37.5% TCA in water • Stop buffer C: 2% trisodium citrate in 2% acetic acid solution in water • Add 100 μl of reaction buffer to each well. • Add 10 μl of DMSO (control) or inhibitor/compound or compounds such as […] or orthovanadate to each well. […] A blank cell indicates either <10% observed inhibition or a large difference between repetitions. In certain examples, the lack of observed inhibition is due to a lack of solubility of the compound under assay conditions, rather than a lack of apyrase inhibitory activity.

SMILES	% Inhibition of Apyrase
O=C(NCCCN1CCCC1=O)c1cccc(S(=O)(=O)Nc2ccc(Br)cc2)c1 [I-46, 3-(N-(4-bromophenyl)sulfamoyl)-N-(3-(2-oxopyrrolidin-1-yl)propyl)benzamide]	12%
CC(=O)Nc1ccc(NC(=O)c2cccc(S(=O)(=O)Nc3ccc(Br)cc3)c2)cc1 [I-47, N-(4-acetamidophenyl)-3-(N-(4-bromophenyl)sulfamoyl)benzamide]	12%
O=C(NCc1ccco1)c1cccc(S(=O)(=O)Nc2ccc(Br)cc2)c1 [I-48, 3-(N-(4-bromophenyl)sulfamoyl)-N-(furan-2-ylmethyl)benzamide]	11%
Cc1ccc([N+](=O)[O-])cc1NC(=O)c1cc(S(=O)(=O)Nc2ccc(Br)cc2)c(Cl)cc1Cl [I-49, 5-(N-(4-bromophenyl)sulfamoyl)-2,4-dichloro-N-(2-methyl-5-nitrophenyl)benzamide]	11%
O=C(Nc1cccc([N+](=O)[O-])c1)c1cccc(S(=O)(=O)NCc2ccccc2)c1 [I-50, 3-(N-benzylsulfamoyl)-N-(3-nitrophenyl)benzamide]	10%
O=C(Nc1cccc([N+](=O)[O-])c1)c1cccc(S(=O)(=O)Nc2cccc(F)c2)c1 [I-51, 3-(N-(3-fluorophenyl)sulfamoyl)-N-(3-nitrophenyl)benzamide]	10%
O=C(Nc1cccc([N+](=O)[O-])c1)c1cc(S(=O)(=O)Nc2ccc(F)cc2)ccc1Cl [I-52, 2-chloro-5-(N-(4-fluorophenyl)sulfamoyl)-N-(3-nitrophenyl)benzamide]	10%
O=C(Nc1ccccc1Cl)c1cccc(S(=O)(=O)Nc2ccc(Cl)cc2)c1 [I-177, N-(2-chlorophenyl)-3-(N-(4-chlorophenyl)sulfamoyl)benzamide]	69%
Cc1cc(C)cc(NC(=O)c2cccc(S(=O)(=O)Nc3ccc4c(c3)OCO4)c2)c1 [I-179, 3-(N-(benzo[d][1,3]dioxol-5-yl)sulfamoyl)-N-(3,5-dimethylphenyl)benzamide]	72%
O=C(Nc1cccc(S(=O)(=O)N2CCCC2)c1)c1ccccc1NS(=O)(=O)c1cccc(C(F)(F)F)c1 [I-180, N-(3-(pyrrolidin-1-ylsulfonyl)phenyl)-2-((3-(trifluoromethyl)phenyl)sulfonamido) benzamide]	75%
O=C(Nc1ccc(OC(F)F)c(Cl)c1)c1cccc(S(=O)(=O)Nc2ccc3c(c2)OCO3)c1 [I-181, 3-(N-(benzo[d][1,3]dioxol-5-yl)sulfamoyl)-N-(3-chloro-4-(difluoromethoxy)phenyl)benzamide]	77%
Cc1cc(C(=O)Nc2cccc(S(=O)(=O)Nc3ccc(Br)cc3)c2)ccc1[N+](=O)[O-] [I-182, N-(3-(N-(4-bromophenyl)sulfamoyl)phenyl)-3-methyl-4-nitrobenzamide]	68%
Cc1cc(F)ccc1NC(=O)c1ccc(S(=O)(=O)Nc2cccc(C(F)(F)F)c2)cc1 [I-183, N-(4-fluoro-2-methylphenyl)-4-(N-(3-(trifluoromethyl)phenyl)sulfamoyl)benzamide]	67%
Cc1ccc(C(=O)Nc2cccc(NS(=O)(=O)c3ccccc3)c2)cc1C [I-184, 3,4-dimethyl-N-(3-(phenylsulfonamido)phenyl)benzamide]	81%
N#Cc1cccc(NC(=O)c2ccc(S(=O)(=O)Nc3ccc(Cl)cc3)cc2)c1 [I-185, 4-(N-(4-chlorophenyl)sulfamoyl)-N-(3-cyanophenyl)benzamide]	77%
N#Cc1ccc(NC(=O)c2cccc(S(=O)(=O)Nc3ccc4c(c3)OCO4)c2)cc1 [I-187, 3-(N-(benzo[d][1,3]dioxol-5-yl)sulfamoyl)-N-(4-cyanophenyl)benzamide]	67%
O=C(c1cccc(S(=O)(=O)Nc2ccc3c(c2)OCO3)c1)N1CCc2ccccc21 [I-188, N-(benzo[d][1,3]dioxol-5-yl)-3-(indoline-1-carbonyl)benzenesulfonamide]	73%
O=C(Nc1ccc(Br)cc1)c1cccc(S(=O)(=O)N2CCc3ccccc32)c1 [I-189, N-(4-bromophenyl)-3-(indolin-1-ylsulfonyl)benzamide]	70%
O=C(Nc1ccc(F)c(Cl)c1)c1cccc(S(=O)(=O)Nc2ccc3c(c2)OCO3)c1 [I-190, 3-(N-(benzo[d][1,3]dioxol-5-yl)sulfamoyl)-N-(3-chloro-4-fluorophenyl)benzamide]	73%
O=C(Nc1ccc(C(F)(F)F)cc1)c1cccc(S(=O)(=O)Nc2ccc3c(c2)OCO3)c1 [I-192, 3-(N-(benzo[d][1,3]dioxol-5-yl)sulfamoyl)-N-(4-(trifluoromethyl)phenyl)benzamide]	72%

SMILES	% Inhibition of Apyrase
O=C(Nc1ccc(F)cc1)c1ccc(S(=O)(=O)Nc2cccc(C(F)(F)F)c2)cc1 [I-193, N-(4-fluorophenyl)-4-(N-(3-(trifluoromethyl)phenyl)sulfamoyl)benzamide]	74%
Cc1ccc(C(=O)Nc2cccc(S(=O)(=O)Nc3ccc(Br)cc3)c2)cc1 [I-194, N-(3-(N-(4-bromophenyl)sulfamoyl)phenyl)-4-methylbenzamide]	74%
O=C(CNC(=O)c1ccc(Br)cc1)Nc1cccc(S(=O)(=O)Nc2ccc(Br)cc2)c1 [I-195, 4-bromo-N-(2-((3-(N-(4-bromophenyl)sulfamoyl)phenyl)amino)-2-oxoethyl)benzamide]	70%
N#Cc1cccc(S(=O)(=O)Nc2cccc(C(=O)Nc3cccc(C(F)(F)F)c3)c2)c1 [I-196, 3-((3-cyanophenyl)sulfonamido)-N-(3-(trifluoromethyl)phenyl)benzamide]	74%
O=C(Nc1cccc(Cl)c1)c1cccc(S(=O)(=O)Nc2ccc3c(c2)OCO3)c1 [I-197, 3-(N-(benzo[d][1,3]dioxol-5-yl)sulfamoyl)-N-(3-chlorophenyl)benzamide]	70%
O=C(Nc1cccc(S(=O)(=O)Nc2ccc(Br)cc2)c1)c1ccc2ncsc2c1 [I-199, N-(3-(N-(4-bromophenyl)sulfamoyl)phenyl)benzo[d]thiazole-6-carboxamide]	66%
O=C(Nc1ccc(OC(F)(F)F)cc1)c1cccc(S(=O)(=O)Nc2ccc3c(c2)OCO3)c1 [I-200, 3-(N-(benzo[d][1,3]dioxol-5-yl)sulfamoyl)-N-(4-(trifluoromethoxy)phenyl)benzamide]	78%
N#Cc1cccc(NC(=O)c2ccc(S(=O)(=O)Nc3ccccc3Cl)cc2)c1 [I-202, 4-(N-(2-chlorophenyl)sulfamoyl)-N-(3-cyanophenyl)benzamide]	78%
O=C(Nc1ccc(F)c([N+](=O)[O-])c1)c1ccc(S(=O)(=O)Nc2ccc(Cl)cc2)cc1 [I-203, 4-(N-(4-chlorophenyl)sulfamoyl)-N-(4-fluoro-3-nitrophenyl)benzamide]	72%
Cc1ccc(NS(=O)(=O)c2ccc(C(=O)Nc3cccc(S(=O)(=O)N4CCCC4)c3)cc2)cc1 [I-204, N-(3-(pyrrolidin-1-ylsulfonyl)phenyl)-4-(N-(p-tolyl)sulfamoyl)benzamide]	69%
O=C(CNC(=O)c1ccccc1F)Nc1cccc(S(=O)(=O)Nc2ccc(Br)cc2)c1 [I-205, N-(2-((3-(N-(4-bromophenyl)sulfamoyl)phenyl)amino)-2-oxoethyl)-2-fluorobenzamide]	74%
Cc1cccc(NS(=O)(=O)c2ccc(C(=O)Nc3cccc(C#N)c3)cc2)c1C [I-206, N-(3-cyanophenyl)-4-(N-(2,3-dimethylphenyl)sulfamoyl)benzamide]	74%
O=C(Nc1cccc(S(=O)(=O)Nc2ccc(Br)cc2)c1)c1ccsc1 [I-207, N-(3-(N-(4-bromophenyl)sulfamoyl)phenyl)thiophene-3-carboxamide]	74%
O=C(c1ccc(S(=O)(=O)Nc2ccc(Cl)cc2)cc1)N1CCc2ccccc21 [I-208, N-(4-chlorophenyl)-4-(indoline-1-carbonyl)benzenesulfonamide]	66%
N#Cc1cc(C(=O)Nc2cccc(NS(=O)(=O)c3ccccc3)c2)ccc1Cl [I-210, 4-chloro-3-cyano-N-(3-(phenylsulfonamido)phenyl)benzamide]	73%
CCOc1ccc(NS(=O)(=O)c2ccc(C(=O)Nc3cccc(C#N)c3)cc2)cc1 [I-211, N-(3-cyanophenyl)-4-(N-(4-ethoxyphenyl)sulfamoyl)benzamide]	76%
O=C(Nc1cccc(NS(=O)(=O)c2ccc(Cl)cc2)c1)c1cc(F)ccc1F [I-212, N-(3-((4-chlorophenyl)sulfonamido)phenyl)-2,5-difluorobenzamide]	69%
Cc1cccc(NC(=O)c2cccc(S(=O)(=O)N3CCc4ccccc43)c2)c1 [I-214, 3-(indolin-1-ylsulfonyl)-N-(m-tolyl)benzamide]	71%
CN(c1ccccc1)S(=O)(=O)c1ccccc1C(=O)Nc1ccc(S(=O)(=O)N2CCCC2)cc1 [I-215, 2-(N-methyl-N-phenylsulfamoyl)-N-(4-(pyrrolidin-1-ylsulfonyl)phenyl)benzamide]	58%
O=C(Nc1ccc(F)cc1)c1cccc(S(=O)(=O)Nc2ccc3c(c2)OCO3)c1 [I-216, 3-(N-(benzo[d][1,3]dioxol-5-yl)sulfamoyl)-N-(4-fluorophenyl)benzamide]	71%
